Data from patent US12012390B2, “Flavone compounds for the treatment and prophylaxis of hepatitis B virus disease” (priority 2018, dated 2024).

What was measured:
[1] = test system: HBeAg level (surrogate marker for cccDNA) in HepDES19 cells; assay: Engineered HepDES19 primary screen assay (HBeAg as surrogate marker for cccDNA); type: cell-based, HBV; details: Hepatitis B virus, HepDES19, 120 h, read-out: IC50 (HBeAg) in HepDES19 primary screen assay, HepDES19 cells, 5 days incubation with compound, HBeAg by ELISA
Outline: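 HepDES19 cells were induced by Tet withdrawal for 8 days, then exposed to half-log compound dilutions (1% DMSO) for 5 days at 37° C. HBeAg, a cccDNA surrogate, was measured by ELISA; viability by CCK-8. IC50 from 4-parameter logistic fit.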

[2] = test system: HBV in primary human hepatocytes (PHH); assay: Cryopreserved primary human hepatocytes (PHH) HBV infection assay; type: cell-based; details: Hepatitis B virus, Hepatocyte, 216 h, HBV-infected cryopreserved PHH, 9 days post-compound treatment, extracellular HBsAg by CLIA; read-out: HBsAg IC50
Protocol: This assay is used to confirm the anti-HBV effect of the compounds in HBV PHH infection assay. Cryopreserved PHH (BioreclamationIVT, Lot YJM) was thawed at 37° C. and gently transferred into pre-warmed InVitroGRO HT medium (BioreclamationIVT, Cat. S03317). The mixture was centrifuged at 70 relative centrifugal force (RCF) for 3 minutes at RT, and the supernatant was discarded. Pre-warmed InVitroGRO CP medium (BioreclamationIVT, Cat #S03316) was added to the cell pellet to gently re-suspend cells. The cells were seeded at the density of 5.8×10^4 cells per well to collagen I coated 96-well plate (Gibco, Cat. A1142803) with the InVitroGRO CP medium. All plates were incubated at 37° C. with 5% CO2 and 85% humidity.
At 20 hours after plating, the medium was changed to PHH culture medium (Dulbecco's Modified Eagle Medium (DMEM)/F12 (1:1) (Gibco, Cat. 11320-033), 10% fetal bovine serum (Gibco Cat. 10099141), 100 U/mL penicillin, 100 μg/mL streptomycin (Gibco, Cat. 151401-122), 5 ng/mL human epidermal growth factor (Invitrogen Cat. PHG0311L), 20 ng/mL dexamethasone (Sigma, Cat. D4902) and 250 ng/mL human recombinant insulin (Gibco, Cat. 12585-014)). And the cells were incubated at 37° C. with 5% CO2 and 85% humidity for 4 hours. The medium was then changed to pre-warmed PHH culture medium containing 4% polyethylene glycol (PEG) MW8000 (Sigma, Cat. P1458-50ML) and 1% DMSO (Sigma, Cat. D2650). 5.8×10^6 genomic equivalents of HBV were added into the medium.
At 24 hours post-infection, the cells were gently washed with PBS and refreshed with PHH culture medium supplemented with 1% DMSO, and 0.25 mg/mL Matrix gel (Corning, Cat. 356237) at 200 μL per well. All plates were immediately placed in at 37° C. CO2 incubator.
24 hours later, serial dilutions of compounds made with DMSO were further diluted with the same culture medium (PHH culture medium supplemented with 1% DMSO and 0.25 mg/mL Matrix gel as described above) before they were added to the cells to reach desired final compound concentrations and 1% DMSO concentration. The medium containing the compounds were refreshed every three days.
At 9 days post-compound treatment, extracellular HBsAg level were measured with Chemiluminescence Immuno Assay (CLIA) kit (Autobio, HBsAg Quantitative CLIA). Extracellular HBV DNA was extracted by MagNA Pure 96 system (Roche) and then determined by quantitative PCR with the following primers and probe: […]
HBsAg IC50 and HBV DNA IC50 values were derived from the dose-response curve using 4 parameter logistic curve fit method. The compounds of formula (I) have HBsAg IC50<20 μM, particularly <1 μM; and HBV DNA IC50<50 μM. Test results of the compounds of this invention as well as the reference compounds in Cryopreserved PHH assay are given in Table 2 and Table 3.

SMILES | IC50 [1] | IC50 [2]
COc1cc(OCCOC2CC(C(=O)O)C2)ccc1-c1cc(=O)c2cccc(Cl)c2o1 (stereo not shown) [Example 50, 3-[2-[4-(8-chloro-4-oxo-chromen-2-yl)-3-methoxy-phenoxy]ethoxy]cyclobutanecarboxylic acid] | 1.78 µM | 10.2 µM
CCOc1cc(OCCOC2CC(C(=O)O)C2)ccc1-c1cc(=O)c2cccc(Cl)c2o1 (stereo not shown) [Example 51, 3-[2-[4-(8-chloro-4-oxo-chromen-2-yl)-3-ethoxy-phenoxy]ethoxy]cyclobutanecarboxylic acid] | 0.86 µM | 0.94 µM
O=C(O)C1CC(OCCOc2ccc(-c3oc4c(Cl)cccc4c(=O)c3Cl)cc2)C1 (stereo not shown) [Example 53, 3-[2-[4-(3,8-dichloro-4-oxo-chromen-2-yl)phenoxy]ethoxy]cyclobutanecarboxylic acid] | 22 µM | 4.01 µM
O=c1c(O)c(-c2ccc(OCCO[C@H]3C[C@@H](C(=O)O)C3)cc2)oc2c(Cl)cccc12 [Example 55, Cis-3-[2-[4-(8-chloro-3-hydroxy-4-oxo-chromen-2-yl)phenoxy]ethoxy]cyclobutanecarboxylic acid] | 0.12 µM | 9.5 µM
O=C(O)C1CC(OCCOc2ccc(-c3cc(=O)c4cccc(Cl)c4s3)cc2)C1 (stereo not shown) [Example 57, 3-[2-[4-(8-chloro-4-oxo-thiochromen-2-yl)phenoxy]ethoxy]cyclobutanecarboxylic acid] | 0.09 µM | 0.14 µM
O=C(O)COCCOc1ccc(-c2cc(=O)c3cccc(Cl)c3s2)cc1 [Example 58, 2-[2-[4-(8-chloro-4-oxo-thiochromen-2-yl)phenoxy]ethoxy]acetic acid] | 0.52 µM | 0.57 µM
O=C(O)C1CC(OCCOc2ccc(-c3oc4c(Cl)cc(F)cc4c(=O)c3OC(F)(F)F)cc2)C1 (stereo not shown) [Example 63, 3-[2-[4-[8-chloro-6-fluoro-4-oxo-3-(trifluoromethoxy)chromen-2-yl]phenoxy]ethoxy]cyclobutanecarboxylic acid] | 1.81 µM | 5.36 µM
O=C(O)C1CC(OCCOc2ccc(-c3cc(=O)c4cc(C5CC5)cc(Cl)c4o3)cc2)C1 (stereo not shown) [Example 67, 3-[2-[4-(8-chloro-6-cyclopropyl-4-oxo-chromen-2-yl)phenoxy]ethoxy]cyclobutanecarboxylic acid] | 14.1 µM | 2.77 µM
O=C(O)C1CC(OCCOc2ccc(-c3cc(=O)c4ccc(C(F)(F)F)c(Cl)c4o3)cc2)C1 (stereo not shown) [Example 69, 3-[2-[4-[8-chloro-4-oxo-7-(trifluoromethyl)chromen-2-yl]phenoxy]ethoxy]cyclobutanecarboxylic acid] | 10.7 µM | 2.01 µM
Cc1cc(-c2cc(=O)c3ccc(C(F)(F)F)c(Cl)c3o2)ccc1OCCOC1CC(C(=O)O)C1 (stereo not shown) [Example 72, 3-[2-[4-[8-chloro-4-oxo-7-(trifluoromethyl)chromen-2-yl]-2-methyl-phenoxy]ethoxy]cyclobutanecarboxylic acid] | 14.4 µM | 7.41 µM
O=c1cc(-c2ccc(OCCO[C@H]3C[C@@H](C(=O)O)C3)c(Cl)c2)oc2c(Cl)c(C(F)(F)F)ccc12 [Example 73, Cis-3-[2-[2-chloro-4-[8-chloro-4-oxo-7-(trifluoromethyl)chromen-2-yl]phenoxy]ethoxy]cyclobutanecarboxylic acid] | 15.4 µM | 6.77 µM
COc1ccc(-c2cc(=O)c3cc(OC)ccc3o2)cc1 [Example F-1, 6,4′-dimethoxyflavone, reference compound] | > 50 µM | 61.7 µM
COc1ccc(-c2cc(=O)c3ccccc3o2)cc1 [Example F-2, 4′-methoxyflavone, reference compound] | 16.3 µM | 46.5 µM
COc1ccc2c(=O)c(-c3ccc(C(=O)O)cc3)coc2c1 [Example F-3, 4-(7-methoxy-4-oxo-chromen-3-yl)benzoic acid, reference compound] | > 50 µM | > 100 µM
